Assay results from US11332455B2, “α,β-unsaturated amide compound” (KYOWA KIRIN CO., LTD., priority 2015, dated 2022).

What was measured:
[1] = test system: NCI-H322 cells, a human lung cancer cell line; assay: Cell growth inhibitory effect, cell counting kit 8, 6 days; type: cell-based; conditions: 144 h, 6 days incubation
Excerpt: (§1) Cell growth inhibitory effect on human mesothelioma, human liver cancer, human ovarian cancer, and […]
(§2) NCI-H226 cells, a human mesothelioma cell line (ATCC, CRL-5826), NCI-H322 cells, a human lung cancer cell line (the European Collection of Authenticated Cell Cultures, 95111734), OVTOKO cells, a human ovarian cancer cell line (JCRB cell bank, JCRB1048) and HuH28, a human liver cancer cell line (JCRB cell bank, JCRB0426) were each subcultured by keeping the cell density under 80% in a RPMI1640 culture medium with 10% fetal bovine serum (FBS). NCI-H226 cells, NCI-H322 cells and SSP-25 cells were each suspended in the RPM11640 culture medium mentioned above, and plated to a 96-well flat-bottom plate at 500 cells/well in each well, and incubated at 37° C. in an incubator with 5% CO2 for one day. After the incubation, the evaluation of cell growth inhibitory activity was started. OVTOKO cells were suspended in the RPMI1640 culture medium mentioned above, and plated to a 96-well flat-bottom plate at 250 cells/well in each well, and incubated it at 37° C. in an incubator with 5% CO2 for one day. After the incubation, the evaluation of the cell growth inhibitory activity was started. The next day, a test compound was serially diluted to 5 times of its final concentration in the RPM11640 culture medium mentioned above, and the diluted solution was added to each well. In this case, the final concentration of DMSO in each well was adjusted to 0.1%. After the test compound was added, cells were incubated at 37° C. in an incubator with 5% CO2 for 6 days. At the addition of the test compound and 6 days after the addition, the cell counting measurement was performed using a cell counting kit 8 (made by DOJINDO) according to a protocol equivalent to DOJINDO's recommendation. A reagent contained in the kit was added to each plate and color reaction was performed for 2 or 3 hours at 37° C. in an incubator with 5% CO2. After the reaction, an absorbance at wavelength of 450 nm was measured using a microplate reader. A growth inhibition rate was calculated according to the following formula, from which the concentration of a test compound at which cell growth was inhibited by 50% (GI50 value) was determined.

[2] = test system: NCI-H226 cells, a human mesothelioma cell line; assay: as above; type: cell-based; conditions: 144 h, 6 days incubation
Excerpt: as §1, §2

[3] = group 100 nmol/L to 1 μmol/L (upper bound given in μmol/L)

Row | GI50 [1] [µM] | GI50 ([2]; group less than 100 nmol/L) [µM] | SMILES | GI50 [2, 3] [µM]
1 | < 1 | < 0.1 | C=CC(=O)NC1COc2c(cccc2Oc2ccc(C(F)(F)F)nc2)C1 (stereo not drawn) [Compound 229, N-(8-[{6-(Trifluoromethyl)pyridin-3-yl}oxy]chroman-3-yl)acrylamide] | –
2 | < 1 | < 0.1 | C=CC(=O)Nc1cncc(Oc2ccc(C(F)(F)F)cn2)c1 [Compound 109, N-(5-[{5-(Trifluoromethyl)pyridin-2-yl}oxy]pyridin-3-yl)acrylamide] | –
3 | < 1 | – | C=CC(=O)NC1COc2c(cccc2Oc2ccc(C(F)(F)F)cc2)C1 (stereo not drawn) [Compound 61, N-[8-{4-(Trifluoromethyl)phenoxy}chroman-3-yl]acrylamide] | –
4 | < 1 | < 0.1 | C=CC(=O)NC1COc2c(cccc2Oc2ccc(Cl)cc2)C1 (stereo not drawn) [Compound 59, N-{8-(4-chlorophenoxy)chroman-3-yl}acrylamide] | –
5 | < 1 | < 0.1 | C=CC(=O)N[C@H]1CC[C@@H](Oc2ccc(Cl)cc2)c2nc(OC)ccc21 (relative stereo) [Compound 71, cis-N-{8-(4-Chlorophenoxy)-2-methoxy-5,6,7,8-tetrahydroquinolin-5-yl}acrylamide] | –
6 | < 1 | – | C=CC(=O)NC1CCC(Oc2ccc(C(F)(F)F)cc2)c2cnccc21 (stereo not drawn) [Compound 228, N-[8-{4-(Trifluoromethyl)phenoxy}-5,6,7,8-tetrahydroisoquinolin-5-yl]acrylamide] | –
7 | < 1 | – | C=CC(=O)NCc1cc(Oc2ccc(C(F)(F)F)cc2)cc2ncccc12 [Compound 220, N-([7-{4-(Trifluoromethyl)phenoxy}quinolin-5-yl]methyl)acrylamide] | 0.1 to 1
8 | < 1 | < 0.1 | C=CC(=O)N[C@H]1CC[C@@H](Oc2ccc(C(F)(F)F)cc2)c2nc(C)ccc21 (relative stereo) [Compound 184, cis-N-[2-Methyl-8-{4-(trifluoromethyl)phenoxy}-5,6,7,8-tetrahydroquinolin-5-yl]acrylamide] | –
9 | < 1 | – | C=CC(=O)NC1COc2c(cccc2Oc2ccc(C(F)(F)F)cn2)C1 (stereo not drawn) [Compound 64, N-(8-[{5-(Trifluoromethyl)pyridin-2-yl}oxy]chroman-3-yl)acrylamide] | –
10 | < 1 | – | C=CC(=O)NC1COc2cc(Oc3ccc(Cl)cc3)ccc2C1 (stereo not drawn) [Compound 37, N-{7-(4-Chlorophenoxy)chroman-3-yl}acrylamide] | –
11 | – | – | C=CC(=O)Nc1ccc(Oc2ccc(Cl)cc2)c2ncccc12 [Compound 116, N-{8-(4-Chlorophenoxy)quinolin-5-yl}acrylamide] | 0.1 to 1
12 | – | – | C=CC(=O)NC1COc2c(cccc2Oc2ccc(C(F)(F)F)nn2)C1 (stereo not drawn) [Compound 156, N-(8-[{6-(trifluoromethyl)pyridazin-3-yl}oxy]chroman-3-yl)acrylamide] | 0.1 to 1
13 | – | < 0.1 | C=CC(=O)NC1COc2c(cccc2Oc2cnc(Cl)c(C)c2)C1 (stereo not drawn) [Compound 56, N-[8-{(6-Chloro-5-methylpyridin-3-yl)oxy}chroman-3-yl]acrylamide] | –
14 | – | – | Cc1c(Oc2ccc(C(F)(F)F)cc2)ccc2c1OCCC2NC(=O)/C=C/C(F)(F)F (stereo not drawn) [Compound 29, (E)-4,4,4-Trifluoro-N-[8-methyl-7-{4-(trifluoromethyl)phenoxy}chroman-4-yl]-2-butenamide] | 0.1 to 1
15 | – | – | C=CC(=O)NC1COc2c(cc(Br)cc2Oc2ccc(C(F)(F)F)nc2)C1 (racemic) [Compound 153, N-(6-Bromo-8-[{6-(trifluoromethyl)pyridin-3-yl}oxy]chroman-3-yl) acrylamide] | 0.1 to 1
16 | – | < 0.1 | C=CC(=O)NC1COc2c(Oc3ccc(Cl)cc3)cccc2C1=O (stereo not drawn) [Compound 39, N-{8-(4-Chlorophenoxy)-4-oxochroman-3-yl}acrylamide] | –

Row | SMILES | GI50 [1] [µM] | GI50 ([2]; group less than 100 nmol/L) [µM] | GI50 [2, 3] [µM]
17 | C=CC(=O)NC1COc2c(cc(C(F)(F)F)cc2Oc2ccc(C(F)(F)F)nc2)C1 (stereo not drawn) [Compound 162, N-{6-(Trifluoromethyl)-8-[{6-(trifluoromethyl)pyridin-3-yl}oxy]chroman-3-yl}acrylamide] | < 1 | – | 0.1 to 1
